Where two headings read alike, the source gives them in different places.
How the values were obtained:
AF patients [1] = details: SPORTIF V; Warfarin vs. Ximelagatran; mean follow-up 1.66 years; cited from earlier work
AF patients [2] = details: BAFTA; mean follow-up 2.7 years; cited from earlier work
AF patients [3] = details: ACTIVE W; mean follow-up 1.3 years; cited from earlier work
AF patients [4] = details: SPORTIF III; Warfarin vs. Ximelagatran; mean follow-up 1.45 years; cited from earlier work
[5] = test system: patients with atrial fibrillation at risk of stroke
Description: Median follow-up was 2.0 years and the primary outcome was stroke or systemic embolism.
Patients were recruited from 951 clinical centers in 44 countries. In brief, patients were eligible if they had atrial fibrillation documented on electrocardiogram at screening or within 6 months; and at least one of the following: prior stroke or transient ischemic attack; left ventricular ejection fraction less than 40%; New York Heart Association heart failure symptoms of Class 2 or greater within 6 months; age at least 75 years; or age at least 65 years with diabetes mellitus, hypertension or coronary artery disease.
The time in therapeutic range was calculated by the method of Rosendaal (Rosendaal F R, et al., A method to determine the optimal intensity of oral anticoagulant therapy, Thromb Haemost, 1993, 69:236-239), excluding INRs from the first week and after discontinuations. […] Concomitant use of aspirin (less than 100 mg/day) or other antiplatelet agents was allowed.
Liver function testing was performed monthly during the first year of follow-up.
The primary study outcome was stroke or systemic embolism. The primary safety outcome was major hemorrhage. Secondary outcomes were stroke, systemic embolism and death. Other outcomes were myocardial infarction, pulmonary embolism, transient ischemic attacks, and hospitalizations. The primary net benefit-risk outcome was the composite of stroke, systemic embolism, pulmonary embolism, myocardial infarction, death or major hemorrhage. Stroke was defined as sudden onset of focal neurological deficit consistent with the territory of a major cerebral artery and categorized as ischemic, hemorrhagic or unspecified. Hemorrhagic transformation of ischemic stroke was not considered as hemorrhagic stroke. Intracranial hemorrhage included hemorrhagic stroke and sub-dural or sub-arachnoid hemorrhage. Systemic embolism was an acute vascular occlusion of an extremity or organ documented by imaging, surgery or autopsy. Major bleeding was defined as a reduction in hemoglobin level of at least […] or transfusion of at least 2 units of blood or symptomatic bleeding in a critical area or organ. Life-threatening bleeding was a subset of major bleeding that included fatal bleeding, symptomatic intracranial bleeding, bleeding with hemoglobin decrease of more than […] or requiring transfusion of more than 4 units of blood or requiring inotropic agents or necessitating surgery. All other bleeding was considered minor.
All primary and secondary outcome events were blindly and doubly adjudicated. An international team of adjudicators reviewed documents in local languages after blinding; or documents were translated by a independent group and blinded centrally. All transient ischemic attacks were reviewed to ensure that strokes had not been missed. To detect possible unreported events, symptom questionnaires were regularly administered to patients, and adverse events and hospitalization reports were scrutinized for unreported primary or secondary outcomes.
If maximum of the two p-values was greater than 0.025, the minimum of the two p-values must be less than 0.0125, one-sided, to claim statistical significance. All analyses were based on intention-to-treat.

For `CC(=O)CC(c1ccccc1)c1c(O)c2ccccc2oc1=O` (racemic) [Warfarin, 3-(α-acetonylbenzyl)-4-hydroxycoumarin], the “Myocardial Infarction” value (AF patients [1]) is listed as 1.4% (warfarin), the “Myocardial Infarction” value (AF patients [2]) is listed as 1.1% (warfarin) and the “Myocardial Infarction” value (AF patients [3]) is listed as 0.6% (warfarin). For the same molecule, the “Myocardial Infarction” value (AF patients [4]) was 0.6% (warfarin), the “ALT or AST > 3xULN with concurrent bilirubin > 2xULN” value ([5]; Warfarin) was “(0.4) %” and the “Adverse Event: Arthralgia” value ([5]; Warfarin) was “(5.5) %”. For the same molecule, the “Adverse Event: Atrial fibrillation” value ([5]; Warfarin) was “(5.4) %”, the “Adverse Event: Back pain” value ([5]; Warfarin) was “(5.5) %” and the “Adverse Event: Chest pain” value ([5]; Warfarin) was “(5.7) %”. The “Adverse Event: Cough” value ([5]; Warfarin) was “(5.8) %”, the “Adverse Event: Diarrhea” value ([5]; Warfarin) was “(5.5) %” and the “Adverse Event: Dizziness” value ([5]; Warfarin) was “(9.3) %”. The “Adverse Event: Dyspepsia” value ([5]; Warfarin) was “(1.4) %”, the “Adverse Event: Dyspnoea” value ([5]; Warfarin) was “(9.2) %” and the “Adverse Event: Fatigue” value ([5]; Warfarin) was “(5.9) %”. The “Adverse Event: Nasopharyngitis” value ([5]; Warfarin) was “(5.5) %”, the “Adverse Event: Peripheral edema” value ([5]; Warfarin) was “(7.6) %” and the “Adverse Event: Upper respiratory tract infection” value ([5]; Warfarin) was “(5.0) %”. For the same molecule, the “Adverse Event: Urinary tract infection” value ([5]; Warfarin) was “(5.3) %”, the “Life threatening major bleeding, Rate” value ([5]; Warfarin) was 1.80 /100 Person Years and the “Liver Function Test Abnormalities: ALT or AST > 3xULN” value ([5]; Warfarin) was “(2.1) %”. For the same molecule, the “Pulmonary embolism, Rate” value ([5]; Warfarin) was 0.09 /100 Person Years, the “Reason for discontinuation: Gastrointestinal bleeding” value ([5]; Warfarin) was “(0.9) %” and the “Reason for discontinuation: Gastrointestinal disorders (including pain, vomiting and diarrhea)” value ([5]; Warfarin) was “(0.8) %”. The “Reason for discontinuation: SAE” value ([5]; Warfarin) was “(1.6) %”, the “hepatobiliary disorders (AE)” value ([5]; Warfarin) was “(2.2) %” and the “hepatobiliary disorders (SAE)” value ([5]; Warfarin) was “(0.4) %”. For the same molecule, the “Rate of primary outcome, stroke or systemic embolism” value ([5]; warfarin, median follow-up 2.0 years) was 1.70 % per year.
